Assay results reported in paper PMC12031237, “Toxicity Assessment of (4Z)-Lachnophyllum and (4Z,8Z)-Matricaria Lactones: Implications for Environmental Safety of Bioherbicides” (Toxins, 2025).
In brackets after ≈: the same amount, converted by molar mass. Like-named read-outs stand apart in the source and are kept apart here.

Columns and labels:
A. fischeri [1] = test: Bioluminescence (light) inhibition test, ISO 11348-3; details: 30 min exposure; standard error in brackets, n = 3
Protocol: The bioluminescence inhibition test (30 min) was detected with the A. fischeri (NRRLB-11177) supplied by MicroBioTest, Gent, Belgium, and according to ISO 11348-3 [59]. The bioluminescence was determined by the luminometer Microtox (Model 500 analyzer, New Castle, DE, USA) at 490 nm. To provide the required osmotic pressure for the bacterium, the stock solution was diluted to perform the test in saline water solution (2% sodium chloride, NaCl). The concentrations tested correspond to 0.19, 0.39, 0.78, 1.56, and 3.12 mg L^−^1 and a negative control of 0 mg L^−^1. Toxicity tests were performed in triplicate with a control, and the percentage luminescence inhibition was expressed as the ratio of the decrease in bacterial light production to the remaining light.
(§1) Data analysis was conducted using RStudio for Windows (Version 2024.09.1). Dose–response models were applied to estimate the effective concentrations (EC10 and EC50) for the tested endpoints using the “drc” package. For D. magna, the data were modeled with a binomial log-logistic approach, whereas data for R. subcapitata, A. fischeri and L. sativum were fitted to log-logistic models with the upper limit constrained to 100. Furthermore, to ensure assay sensitivity and validity, a positive control exposed to potassium dichromate for the aquatic species and copper chloride for C. elegans was tested under the same experimental conditions.

R. subcapitata [2] = test: Algal growth inhibition test, ISO 8692; details: positive control
Protocol: The algal growth inhibition test (72 h) with R. subcapitata was carried out according to ISO 8692 [58]. The algal density was determined by spectrophotometric analysis (DR5000, Hach Lange GbH, Weinheim, Germany) at 670 nm. The concentrations tested correspond to 0.19, 0.39, 0.78, 1.56, and 3.12 mg L^−^1 and a negative control of 0 mg L^−^1. The growth inhibition was calculated as the difference in growth at the end of the test of the sample and the control group. Toxicity tests were carried out in triplicate.
as §1

D. magna [3] = test: Crustacean immobility acute test, ISO 6341; format: in vivo, Daphnia magna
Protocol: The immobility acute test (48 h) with D. magna was conducted according to ISO 6341 [60]. D. magna was selected from laboratory stock cultures at the Hygiene Laboratory of the Department of Biology of the University of Naples Federico II, placed in ISO medium, and fed daily with the microalgae R. subcapitata. For the test, five neonates (third brood, <24 h old) were exposed in 10 mL of ISO medium to the following corresponding concentrations: 0.22, 0.43, 0.86, 1.73, 3.46, 6.91, 13.83, 27.65, and 55.30 mg L^−^1 and a negative control of 0 mg L^−^1. Each concentration had 4 replicates, and immobility was assessed after 24 and 48 h of exposure.
as §1

R. subcapitata [4] = details: cited from earlier work
D. magna [5] = test: Literature acute toxicity of herbicides to D. magna; format: in vivo, Daphnia magna
From the text: (§2) Table 3 EC50 values from the literature for the aquatic test species exposed to multiple commonly used herbicides. | column: Hazard Ranking

R. subcapitata [6] = test: Literature growth inhibition of R. subcapitata by herbicides; format: cell-based, Raphidocelis subcapitata
From the text: as §2

D. magna [7] = details: 48 h, cited from earlier work
A. fischeri [8] = test: Literature acute toxicity of herbicides to A. fischeri; format: cell-based, Aliivibrio fischeri
From the text: as §2

A. fischeri [9] = details: 30 min, cited from earlier work
C. elegans = test: Nematode survival bioassay in soil, ASTM E2172-01; format: in vivo; details: 24 h exposure, positive control
Protocol: The nematode bioassay was carried out using the Caenorhabditis elegans wild-type strain N2, Bristol variant, according to the ASTM E2172—01 Standard Method (2014). Culture was maintained on NGM (nematode growth media) plates seeded with Escherichia coli (uracil-deficient OP50 strain) and stored at 20 °C. The tests were conducted using age-synchronized adult nematodes, obtained by lysing gravid nematodes with a bleaching solution (10 g/L NaOH, 10.5 g/L NaOCl), followed by centrifugation and washing with an M9 mineral medium (2.2 mM KH2PO4, 4.2 mM Na2HPO4, 85.6 mM NaCl, and 1 mM MgSO4). The synchronized nematodes were then transferred to NGM agar plates and left to recover overnight.
Soil samples (2.33 g) were hydrated to 35–45% of their dry weight using K-medium in centrifuge tubes. Ten worms were transferred to each tube and exposed to the soil samples for 24 h at 20 °C. […] Treatments were performed in triplicate, with worms kept unfed during the exposure period. Nematodes were extracted by centrifugation (2000 rpm, 2 min) using silica gel (Ludox TM 50, Sigma-Aldrich, St. Louis, MO, USA) with a specific density of 1.13 g/mL. The supernatant was then transferred to 100 mm glass Petri dishes and washed with Keller (K) medium. Extracted individuals were counted under a microscope (40× magnification), with mortality as the measured endpoint. Test validity required a minimum of 80% nematode recovery and 90% survival in the control group.

[10] = GHS ranking of 48 h EC50 of ref 49
[11] = GHS ranking of 72 h EC50 of ref 49
[12] = GHS ranking of 96 h EC50 of ref 47
[13] = GHS ranking of 30 min EC50 of ref 49

## [K+].[K+].[O]=[Cr](=[O])([O-])[O][Cr](=[O])(=[O])[O-] [potassium dichromate, reference compound]
A. fischeri [1]
  EC50 (light inhibition): 3.730 µg/mL
R. subcapitata [2]
  EC50 (growth inhibition): 0.987 µg/mL
D. magna [3]; 24 h exposure
  EC50 (immobilization): 10.501 µg/mL
D. magna [3]; 48 h exposure
  EC50 (immobilization): 5.66 µg/mL

## CCC(=O)Nc1ccc(Cl)c(Cl)c1 [Propanil]
R. subcapitata [4]; 72 h
  EC50: 0.05 µg/mL (≈ 0.229 µM)
D. magna [5]; [10]
  Hazard Ranking: *** (toxic (<1 mg L^−1 ≤ 10 mg L^−1))
R. subcapitata [6]; [11]
  Hazard Ranking: **** (Very toxic (≤1 mg L^−1))
D. magna [7]; ref 49
  EC50: 2.00 mg/L (≈ 9.17 µM)

## O=C(O)CNCP(=O)(O)O [Glyphosate]
R. subcapitata [4]; 96 h
  EC50: 5.55 µg/mL (≈ 32.8 µM)
D. magna [5]; GHS ranking of 48 h EC50 (commercial formulation) of ref 39
  Hazard Ranking: *** (toxic (<1 mg L^−1 ≤ 10 mg L^−1))
D. magna [5]; GHS ranking of 48 h EC50 (isopropylamine salt) of ref 39
  Hazard Ranking: *** (toxic (<1 mg L^−1 ≤ 10 mg L^−1))
D. magna [5]; GHS ranking of 48 h EC50 of ref 40
  Hazard Ranking: *** (toxic (<1 mg L^−1 ≤ 10 mg L^−1))
D. magna [5]; GHS ranking of 48 h EC50 of ref 41
  Hazard Ranking: *** (toxic (<1 mg L^−1 ≤ 10 mg L^−1))
D. magna [5]; GHS ranking of 48 h LC50 of ref 42
  Hazard Ranking: ** (harmful: (<10 mg L^−1 ≤ 100 mg L^−1))
D. magna [5]; GHS ranking of 48 h LC50 of ref 43
  Hazard Ranking: * (not harmful: (>100 mg L^−1))
D. magna [5]; GHS ranking of 48 h LC50 of ref 44
  Hazard Ranking: **** (Very toxic (≤1 mg L^−1))
D. magna [5]; GHS ranking of 48 h LC50 of ref 45
  Hazard Ranking: *** (toxic (<1 mg L^−1 ≤ 10 mg L^−1))
D. magna [5]; GHS ranking of 48 h LC50 of ref 46
  Hazard Ranking: ** (harmful: (<10 mg L^−1 ≤ 100 mg L^−1))
A. fischeri [8]; GHS ranking of 30 min EC50 of ref 48
  Hazard Ranking: *** (toxic (<1 mg L^−1 ≤ 10 mg L^−1))
A. fischeri [9]; ref 48
  EC50: 2.93 µg/mL (≈ 17.3 µM)
R. subcapitata [6]; [12]
  Hazard Ranking: *** (toxic (<1 mg L^−1 ≤ 10 mg L^−1))
D. magna [7]; average of multiple tests performed, given as isopropylamine salt
  EC50: 4.30 °° mg L^−1
D. magna [7]; average of multiple tests performed, rounded up (formulation commercially available)
  EC50: 7.15 ° mg L^−1
D. magna [7]; ref 40
  EC50: 4.20 mg/L (≈ 24.8 µM)
D. magna [7]; ref 41
  EC50: 8.90 mg/L (≈ 52.6 µM)
D. magna [7]; ref 42
  LC50: 21.34 µg/mL (≈ 126 µM)
D. magna [7]; ref 43
  LC50: 190.0 µg/mL (≈ 1120 µM)
D. magna [7]; ref 44
  LC50: 0.012 µg/mL (≈ 0.071 µM)
D. magna [7]; ref 45
  LC50: 9.34 µg/mL (≈ 55.2 µM)
D. magna [7]; ref 46
  LC50: 11.68 µg/mL (≈ 69.1 µM)

## [Cl][Cu][Cl] [copper chloride, reference compound]
C. elegans
  EC50: 42.37 µg/mL

## CCc1cccc(C)c1N(C(=O)CCl)C(C)COC (stereo not shown) [Metolachlor]
R. subcapitata [4]; 72 h
  EC50: 0.055 µg/mL (≈ 0.194 µM)
R. subcapitata [4]; 96 h
  EC50: 5.51 µg/mL (≈ 19.4 µM)
D. magna [5]; [10]
  Hazard Ranking: ** (harmful: (<10 mg L^−1 ≤ 100 mg L^−1))
A. fischeri [8]; [13]
  Hazard Ranking: ** (harmful: (<10 mg L^−1 ≤ 100 mg L^−1))
A. fischeri [8]; GHS ranking of 30 min EC50 of ref 50
  Hazard Ranking: * (not harmful: (>100 mg L^−1))
A. fischeri [8]; GHS ranking of 30 min EC50 of ref 51
  Hazard Ranking: * (not harmful: (>100 mg L^−1))
A. fischeri [9]; ref 49
  EC50: 17.00 µg/mL (≈ 59.9 µM)
A. fischeri [9]; ref 50
  EC50: 265.00 µg/mL (≈ 934 µM)
A. fischeri [9]; ref 51
  EC50: 214.85 µg/mL (≈ 757 µM)
R. subcapitata [6]; [11]
  Hazard Ranking: **** (Very toxic (≤1 mg L^−1))
R. subcapitata [6]; [12]
  Hazard Ranking: *** (toxic (<1 mg L^−1 ≤ 10 mg L^−1))
D. magna [7]; ref 49
  EC50: 23.50 mg/L (≈ 82.8 µM)

## CCNc1nc(Cl)nc(NC(C)C)n1 [Atrazine]
R. subcapitata [4]; 72 h
  EC50: 0.02 µg/mL (≈ 0.0927 µM)
D. magna [5]; [10]
  Hazard Ranking: **** (Very toxic (≤1 mg L^−1))
A. fischeri [8]; [13]
  Hazard Ranking: ** (harmful: (<10 mg L^−1 ≤ 100 mg L^−1))
A. fischeri [9]; ref 49
  EC50: 39.80 µg/mL (≈ 185 µM)
R. subcapitata [6]; [11]
  Hazard Ranking: **** (Very toxic (≤1 mg L^−1))
D. magna [7]; ref 49
  EC50: 0.05 mg/L (≈ 0.232 µM)
